US7342015B2, “Indole derivatives” (H. Lundbeck A/S, priority 2001, dated 2008)

Columns and labels:
[1] = biological target: T1, cloned 5-HT1A receptors (Homo sapiens, UniProt P08908); assay: Inhibition of 3H-5-CT binding to human 5-HT1A receptors; details: cloned human 5-HT1A receptors in transfected HeLa cells (HA7), 15 minutes at 37° C., pH 7.7
T1 construct: expressed in transfected cells; host or cells: HeLa cells (HA7)
T1 sequence (P08908 1-422): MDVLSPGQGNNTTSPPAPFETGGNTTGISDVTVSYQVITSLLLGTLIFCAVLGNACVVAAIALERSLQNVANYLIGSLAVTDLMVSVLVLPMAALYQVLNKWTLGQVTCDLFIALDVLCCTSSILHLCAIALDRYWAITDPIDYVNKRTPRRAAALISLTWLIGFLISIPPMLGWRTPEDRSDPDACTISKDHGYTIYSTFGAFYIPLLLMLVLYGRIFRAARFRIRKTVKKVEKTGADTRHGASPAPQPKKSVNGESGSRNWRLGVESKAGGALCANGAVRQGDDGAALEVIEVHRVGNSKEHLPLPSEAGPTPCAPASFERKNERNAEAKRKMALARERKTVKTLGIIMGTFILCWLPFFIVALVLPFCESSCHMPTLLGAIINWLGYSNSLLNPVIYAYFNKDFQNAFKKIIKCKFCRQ
Experimental: The affinity of the compounds of the invention to 5-HT1A receptors was determined by measuring the inhibition of binding of a radioactive ligand at 5-HT1A receptors as described in the following test:
Inhibition of ^3H-5-CT Binding to Human 5-HT1A Receptors.
By this method, the inhibition by drugs of the binding of the 5-HT1A agonist ^3H-5-carboxamido tryptamine (3H-5-CT) to cloned human 5-HT1A receptors stably expressed in transfected HeLa cells (HA7) (Fargin, A. et al. J. Biol. Chem. 1989, 264, 14848) is determined in vitro. The assay was performed as a modification of the method described by Harrington, M. A. et al. J. Pharmacol. Exp. Ther. 1994, 268, 1098. Human 5-HT1A receptors (40 μg of cell homogenate) were incubated for 15 minutes at 37° C. in 50 mM Tris buffer at pH 7.7 in the presence of ^3H-5-CT. Non-specific binding was determined by including 10 μM of metergoline. The reaction was terminated by rapid filtration through Unifilter GF/B filters on a Tomtec Cell Harvester. Filters were counted in a Packard Top Counter.

[2] = biological target: T2, re-uptake of serotonin (3H-5-HT uptake into whole rat brain synaptosomes) (Rattus norvegicus, UniProt P31652); assay: Inhibition of 3H-5-HT uptake into rat brain synaptosomes; type: biochemical; details: in vitro
T2 construct: whole rat brain synaptosomes; from tissue; host or cells: whole rat brain synaptosomes
T2 sequence (P31652 whole entry): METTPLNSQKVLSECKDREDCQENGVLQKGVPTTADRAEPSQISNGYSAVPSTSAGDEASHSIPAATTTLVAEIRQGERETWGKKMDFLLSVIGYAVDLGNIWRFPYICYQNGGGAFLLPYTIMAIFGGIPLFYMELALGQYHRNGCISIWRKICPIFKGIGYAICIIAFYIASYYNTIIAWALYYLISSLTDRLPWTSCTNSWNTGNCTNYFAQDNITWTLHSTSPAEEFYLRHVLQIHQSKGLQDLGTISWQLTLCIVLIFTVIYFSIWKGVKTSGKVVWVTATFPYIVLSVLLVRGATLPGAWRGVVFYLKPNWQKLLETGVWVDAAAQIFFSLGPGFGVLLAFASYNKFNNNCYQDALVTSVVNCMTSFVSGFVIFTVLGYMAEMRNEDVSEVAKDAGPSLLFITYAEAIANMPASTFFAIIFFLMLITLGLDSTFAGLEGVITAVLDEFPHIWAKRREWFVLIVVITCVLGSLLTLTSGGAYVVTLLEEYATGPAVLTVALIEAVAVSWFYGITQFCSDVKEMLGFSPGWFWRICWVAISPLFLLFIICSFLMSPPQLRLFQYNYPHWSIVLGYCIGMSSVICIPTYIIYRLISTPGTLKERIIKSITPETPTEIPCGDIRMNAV
Experimental: The compounds of the invention have also been tested for their effect on re-uptake of serotonin in the following test:
Inhibition of ^3H-5-HT Uptake Into Rat Brain Synaptosomes.
Using this method, the ability of drugs to inhibit the accumulation of ^3H-5-HT into whole rat brain synaptosomes is determined in vitro. The assay was performed as described by Hyttel, J. Psychopharmacology 1978, 60, 13.

[3] = biological target: T1, cloned 5-HT1A receptors; assay: 5-HT1A antagonistic activity: antagonism of 5-HT induced inhibition of forskolin induced cAMP accumulation in transfected HeLa cells (HA7); type: cell-based; details: cloned 5-HT1A receptors in transfected HeLa cells (HA7)
Experimental: The 5-HT1A antagonistic activity of some of the compounds of the invention has been estimated in vitro at cloned 5-HT1A receptors, stably expressed in transfected HeLa cells (HA7). In this test, 5-HT1A antagonistic activity is estimated by measuring the ability of the compounds to antagonize the 5-HT induced inhibition of forskolin induced cAMP accumulation. The assay was performed as a modification of the method described by Pauwels, P. J. et al. Biochem. Pharmacol. 1993, 45, 375.

IC50 [1]	IC50 [2]	IC50 [3]	SMILES
< 50 nM	< 20 nM		Cc1cc(C)nc(SCCN2CCN(c3cccc4[nH]ccc34)CC2)n1 [Compound 2o, 4,6-Dimethyl-2-{2-[4-(1H-indol-4-yl)piperazin-1-yl]ethylsulfanyl}pyrimidine]
< 50 nM	< 20 nM	< 7000 nM	N#Cc1c(C(F)(F)F)cc(C2CC2)nc1SCCN1CCN(c2cccc3[nH]ccc23)CC1 [Compound 2e, 2-{2-[4-(1H-Indol-4-yl)piperazin-1-yl]ethylsulfanyl}-4-trifluoromethyl-6-cyclopropylnicotinonitrile]
< 50 nM	< 20 nM	< 7000 nM	N#Cc1cccnc1SCCN1CCN(c2cccc3[nH]ccc23)CC1 [Compound 2b, 2-{2-[4-(1H-Indol-4-yl)piperazin-1-yl]ethylsulfanyl}nicotinonitrile]

Second part, the compound before the results:

SMILES	IC50 [1]	IC50 [2]	IC50 [3]
Cc1ccc(C#N)c(SCCN2CCN(c3cccc4[nH]ccc34)CC2)n1 [Compound 1d, 2-{2-[4-(1H-Indol-4-yl)piperazin-1-yl]ethylsulfanyl}-6-methylnicotinonitrile]	< 50 nM	< 20 nM	< 7000 nM
Cc1cc(C)c(C#N)c(SCCCN2CCN(c3cccc4[nH]ccc34)CC2)n1 [Compound 1l, 2-{3-[4-(1H-Indol-4-yl)piperazin-1-yl]propylsulfanyl}-4,6-dimethylnicotinonitrile]		< 20 nM	< 7000 nM
Cc1cc(C)c(C#N)c(SCCN2CCN(c3cccc4[nH]ccc34)CC2)n1 [Compound 1a, 2-{2-[4-(1H-Indol-4-yl)piperazin-1-yl]ethylsulfanyl}-4,6-dimethylnicotinonitrile]		< 20 nM	< 7000 nM
